From paper PMC4091617 (Chemical communications (Cambridge, England), 2011)

Target: T1, DhpI (Streptomyces luridus, UniProt D7PC21)
T1 sequence (D7PC21 1-218): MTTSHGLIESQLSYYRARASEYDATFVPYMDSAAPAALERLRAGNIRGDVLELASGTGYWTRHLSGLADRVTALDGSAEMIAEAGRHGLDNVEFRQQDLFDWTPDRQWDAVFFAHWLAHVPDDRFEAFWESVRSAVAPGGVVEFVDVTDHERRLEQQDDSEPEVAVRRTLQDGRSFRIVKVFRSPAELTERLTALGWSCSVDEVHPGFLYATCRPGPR
Experiment: in vitro O-methylation
Type: biochemical
Settings: SAM as methyl donor; Pfs present

SMILES: CC(=O)N(O)CCCP(=O)(O)O [FR-900098]
- in vitro O-methylation: These four phosphonates were used as the basis; each was methylated by DhpI
